# In PMC9757636, “The effectiveness of newly synthesized quaternary ammonium salts differing in chain length and type of counterion against priority human pathogens” (Scientific Reports, 2022):
# Marks after values point to notes of the source that are not given here.
# Assays:
# [1] = system: S. epidermidis ATCC 35984; assay: MIC/MBC microdilution; format: cell-based, Staphylococcus epidermidis; conditions: for Minimal bactericidal concentration (*MBC): 99.9% reduction; for Minimal inhibitory concentration (MIC): 24 h, 37 °C, >90% growth inhibition
# Description: (§1) The minimum inhibitory concentration (MIC) of the tested monomeric QAS was performed using the microdilution method according to CLSI recommendation (M27-A3). Concentrations from 10 to 1280 µM were analyzed. Strains were incubated with or without compounds (growth control) for 24 h at 37 °C. Three independent replicates were performed. The MIC value was determined spectrophotometrically and the concentration that inhibited more than 90% of growth was determined. Optical density was measured at λ = 590 nm using a 96-well microplate reader (Bio-Rad Universal Hood II).
# (§2) To determine the minimum bactericidal concentration (MBC), 10 µL of bacterial suspension incubated with monomeric QAS (MIC concentration and two times higher) was transferred to plates with LB (1% tryptone, 1% yeast extract, 0.5% NaCl) medium. […] The concentration that reduced 99.9% of microbial growth was determined as MBC[54].
# S. epidermidis B374 [2] = assay: MIC/MBC microdilution; format: cell-based, Staphylococcus epidermidis; conditions: S. epidermidis B374; for MBC / Minimal bactericidal concentration (*MBC): 99.9% reduction; for MBC: read-out: Minimal bactericidal concentration (*MBC); for MIC / Minimal inhibitory concentration (MIC): 24 h, 37 °C, >90% growth inhibition; for MIC: read-out: Minimal inhibitory concentration (MIC)
# Description: as §1, §2
# S. epidermidis SI8 = assay: MIC/MBC microdilution; format: cell-based, Staphylococcus epidermidis; conditions: for Minimal bactericidal concentration (*MBC): 99.9% reduction; for Minimal inhibitory concentration (MIC): 24 h, 37 °C, >90% growth inhibition
# Description: as §1, §2
# S. aureus ATCC 6538 = assay: MIC/MBC microdilution; format: cell-based, Staphylococcus aureus; conditions: S. aureus ATCC 6538; for Minimal bactericidal concentration (*MBC): 99.9% reduction; for Minimal inhibitory concentration (MIC): 24 h, 37 °C, >90% growth inhibition
# Description: as §1, §2
# S. aureus MRSA R98 = assay: MIC/MBC microdilution; format: cell-based, Staphylococcus aureus; conditions: for Minimal bactericidal concentration (*MBC): 99.9% reduction; for Minimal inhibitory concentration (MIC): 24 h, 37 °C, >90% growth inhibition
# Description: as §1, §2
# E. coli ATCC 11229 = assay: MIC/MBC microdilution; format: cell-based, Escherichia coli; conditions: E. coli ATCC 11229; for Minimal bactericidal concentration (*MBC): 99.9% reduction; for Minimal inhibitory concentration (MIC): 24 h, 37 °C, >90% growth inhibition
# Description: as §1, §2
# E. coli H64 = assay: MIC/MBC microdilution; format: cell-based, Escherichia coli; conditions: E. coli H64; for Minimal bactericidal concentration (*MBC): 99.9% reduction; for Minimal inhibitory concentration (MIC) / MIC: 24 h, 37 °C, >90% growth inhibition; for MIC: read-out: Minimal inhibitory concentration (MIC)
# Description: as §1, §2
# P. aeruginosa ATCC 27853 = assay: MIC/MBC microdilution; format: cell-based, Pseudomonas aeruginosa; conditions: P. aeruginosa ATCC 27853; for Minimal bactericidal concentration (*MBC): 99.9% reduction; for Minimal inhibitory concentration (MIC): 24 h, 37 °C, >90% growth inhibition
# Description: as §1, §2
# P. aeruginosa PAO1 [3] = assay: MIC/MBC microdilution; format: cell-based, Pseudomonas aeruginosa; conditions: for Minimal bactericidal concentration (*MBC): 99.9% reduction; for Minimal inhibitory concentration (MIC): 24 h, 37 °C, >90% growth inhibition
# Description: as §1, §2
# [4] = Critical micelle concentration by conductometric measurements; format: physicochemical; conditions: aqueous solution, 25 °C
# Description: Values of critical micelle concentrations (CMC) of cationic surfactants were measured conductrometrically. N5721 conductometer (Tel-Eko Projekt sp z o.o., Poland), equipped with N5981 probe, was calibrated using 0.1 M, 0.01 M and 0.001 M KCl aqueous solutions (conductivities equal to 1.287 S/m, 0.141 S/m and 0.0147 S/m, respectively) and used without temperature compensation mode (constant temperature 25 °C was kept during all calibration procedures and measurements). Values of specific conductivities of at least 15 different concentrations for each surfactant were measured and plotted versus concentration; the discontinuity point was used to determine critical micelle concentration.
# S. epidermidis B374 [5] = assay: Adhesion to stainless steel; format: cell-based, Staphylococcus epidermidis; conditions: concentration not given, range given over three strains
# S. epidermidis B374 [6] = assay: Adhesion to polystyrene plate; format: cell-based, Staphylococcus epidermidis
# Description: Adhesion analysis to polystyrene surfaces was determined according to the method of Rodrigues et al. with modifications. Polystyrene 96-well plates were incubated with the respective compound concentrations (10–1280 µM) for 4 h at 37 °C with 100 rpm shaking. The plates were then washed with miliQ and inoculated with 100 µL of bacterial suspension (OD = 0.4–0.6). Plates were incubated for 6 h at 37 °C with 100 rpm shaking. Wells were rinsed and fixed for 20 min at 60 °C. They were then […] with 0.1% crystal violet solution for 5 min. The wells were washed with miliQ until the unfixed dye was completely eluted. The absorbance at λ = 590 nm was measured using a reader (Bio-Rad Universal Hood II). The positive control was a surface not treated with QAS. Three independent trials were performed.
# P. aeruginosa PAO1 [7] = assay: Adhesion to glass; format: cell-based, Pseudomonas aeruginosa; conditions: concentration not given
# [8] = system: Salmonella typhimurium TA100; assay: Mutagenicity (Ames test); format: cell-based; conditions: for Number of colonies: ± SD
# Description: (§3) Two reference strains of Salmonella Typhimurium TA98 and Salmonella Typhimurium TA100, deficient in histidine synthesis, were used for this study according to the method proposed by Ames et al. with modifications. […] The mixture was mixed and poured onto a Davis minimal medium plate. The mixture without the test compound was used as a negative control. The positive control was a mixture of bacterial culture, biotin-histidine solution, and sodium azide (at a concentration of 15 μg/mL for strain TA100) or acriflavine (at a concentration of 100 μg/mL for strain TA98). Plates were incubated for 48 h at 37 °C, and then colonies were counted. The mutagenicity ratio (MR), the ratio of the number of revertants grown in the presence of the test compound to the number of spontaneously occurring revertants (negative control), was calculated. A mutagenic ratio equal to or greater than 1.7 indicates the mutagenic potential of the tested compounds. The study was performed in three times.
# [9] = system: Salmonella typhimurium TA98; assay: Mutagenicity (Ames test); format: cell-based; conditions: for Number of colonies: ± SD
# Description: as §3
SMILES,Minimal bactericidal concentration (*MBC) [1],Minimal inhibitory concentration (MIC) [1],Minimal bactericidal concentration (*MBC) (S. epidermidis SI8),Minimal inhibitory concentration (MIC) (S. epidermidis SI8),Minimal bactericidal concentration (*MBC) (S. aureus ATCC 6538),Minimal inhibitory concentration (MIC) (S. aureus ATCC 6538),Minimal bactericidal concentration (*MBC) (S. aureus MRSA R98),Minimal inhibitory concentration (MIC) (S. aureus MRSA R98),Minimal bactericidal concentration (*MBC) (E. coli ATCC 11229),Minimal inhibitory concentration (MIC) (E. coli ATCC 11229),Minimal bactericidal concentration (*MBC) (E. coli H64),Minimal inhibitory concentration (MIC) (E. coli H64),Minimal bactericidal concentration (*MBC) (P. aeruginosa ATCC 27853),Minimal inhibitory concentration (MIC) (P. aeruginosa ATCC 27853),Minimal bactericidal concentration (*MBC) (P. aeruginosa PAO1 [3]),Minimal inhibitory concentration (MIC) (P. aeruginosa PAO1 [3]),CMC [4],Mutagenicity index ([8]; ¼ MIC),Number of colonies ([8]; ¼ MIC),Mutagenicity index ([8]; ½ MIC),also measured
"CCCCCCCCCCCCCCCCN(C)CCC[N+](C)(C)C.COC(=O)[O-] [MeC16, [(3-hexadecyilomethyloamine)propyl] trimethylammonium methylcarbonate]",40 *40 µM,40 *40 µM,10 *10 µM,10 *10 µM,10 *10 µM,10 *10 µM,40 *40 µM,40 *40 µM,320 *320 µM,320 *320 µM,80 *80 µM,80 *80 µM,> 1280 * > 1280 µM,> 1280 * > 1280 µM,> 1280 * > 1280 µM,> 1280 * > 1280 µM,0.0012 mol/L,1.09,305 ± 8.7,1.09,MBC (S. epidermidis B374 [2]): 160 µM; MIC (S. epidermidis B374 [2]): 80 µM; MIC (E. coli H64): 80 µM; inhibition of adhesion to stainless steel (S. epidermidis B374 [5]): 69–83%; reduction in adhesion to polystyrene (S. epidermidis B374 [6]; 320 µM): 77%; reduction of adhesion to glass (P. aeruginosa PAO1 [7]): approximately 20%; Number of colonies ([8]; ½ MIC): 306.7 ± 11.5; Mutagenicity index ([9]; ¼ MIC): 0.39; Number of colonies ([9]; ¼ MIC): 9 ± 2; Mutagenicity index ([9]; ½ MIC): 0.19; Number of colonies ([9]; ½ MIC): 4.3 ± 3.1
CCCCCCCCCCCCCC(=O)N(C)CCC[N+](C)(C)C.[Br-] [BrC14],160 *160 µM,160 *160 µM,160 *160 µM,160 *160 µM,320 *320 µM,320 *320 µM,320 *320 µM,320 *320 µM,> 1280 * > 1280 µM,> 1280 * > 1280 µM,320 *320 µM,320 *320 µM,1280 *1280 µM,1280 *1280 µM,> 1280 * > 1280 µM,> 1280 * > 1280 µM,0.0025 mol/L,1.24,158 ± 19.8,1.16,Minimal bactericidal concentration (*MBC) (S. epidermidis B374 [2]): 640 * > 640 µM; Minimal inhibitory concentration (MIC) (S. epidermidis B374 [2]): 640 * > 640 µM; reduced adhesion to polystyrene (S. epidermidis B374 [6]; 1280 µM): 82%; reduction of adhesion to glass (P. aeruginosa PAO1 [7]): approximately 20%; Number of colonies ([8]; ½ MIC): 147.5 ± 21.9; Mutagenicity index ([9]; ¼ MIC): 0.73; Number of colonies ([9]; ¼ MIC): 18.7 ± 6.4; Mutagenicity index ([9]; ½ MIC): 0.84
CCCCCCCCCCCC(=O)N(C)CCC[N+](C)(C)C.[Br-] [BrC12],640 *640 µM,640 *640 µM,640 *640 µM,640 *640 µM,1280 *1280 µM,1280 *1280 µM,640 *640 µM,640 *640 µM,1280 *1280 µM,1280 *1280 µM,1280 *1280 µM,1280 *1280 µM,1280 *1280 µM,1280 *1280 µM,> 1280 * > 1280 µM,> 1280 * > 1280 µM,0.0086 mol/L,1.41,179.3 ± 13.9,1.15,"Minimal bactericidal concentration (*MBC) (S. epidermidis B374 [2]): 640 *640 µM; Minimal inhibitory concentration (MIC) (S. epidermidis B374 [2]): 640 *640 µM; reduction of adhesion to glass (P. aeruginosa PAO1 [7]): approximately 20%; mutagenicity index (MR) ([8]; base pair substitution type mutations, MR >= 1.7 indicates mutagenic potential): < 1.7; Number of colonies ([8]; ½ MIC): 146 ± 18.5; mutagenicity index (MR) ([9]; reading frame shift type mutation, MR >= 1.7 indicates mutagenic potential): above 1.7; Mutagenicity index ([9]; ¼ MIC): 0.78; Number of colonies ([9]; ¼ MIC): 20 ± 1.4; Mutagenicity index ([9]; ½ MIC): 1.98; Number of colonies ([9]; ½ MIC): 50.5 ± 6.4"
"CCCCCCCCCCCCCCN(C)CCC[N+](C)(C)C.COC(=O)[O-] [MeC14, [(3-tetradecyilomethyloamine)propyl] trimethylammonium methylcarbonate]",40 *40 µM,40 *40 µM,40 *40 µM,40 *40 µM,80 *80 µM,80 *80 µM,80 *80 µM,80 *80 µM,320 *320 µM,320 *320 µM,80 *80 µM,80 *80 µM,1280 * > 1280 µM,1280 * > 1280 µM,> 1280 * > 1280 µM,> 1280 * > 1280 µM,0.0041 mol/L,1.17,329.5 ± 20.5,1.10,MBC (S. epidermidis B374 [2]): 160 µM; MIC (S. epidermidis B374 [2]): 80 µM; MIC (E. coli H64): 80 µM; Number of colonies ([8]; ½ MIC): 310 ± 17.3; Mutagenicity index ([9]; ¼ MIC): 0.57; Number of colonies ([9]; ¼ MIC): 13 ± 2.8; Mutagenicity index ([9]; ½ MIC): 0.95; Number of colonies ([9]; ½ MIC): 21.7 ± 3.5
